Measurements taken from patent US20130150346A1, “Use of FAAH Inhibitors for Treating Parkinson's Disease and Restless Legs Syndrome” (Ironwood Pharmaceutical, Inc., priority 2010, published 2013).

Experiments:
MPTP-lesioned macaques [1] = assay: Motor activity (total activity, high activity time and counts) in MPTP-lesioned macaques treated with URB597 and L-DOPA; assay type: in vivo, cynomolgus monkeys (Macaca fascicularis)
MPTP-lesioned macaques [2] = assay: as above; assay type: in vivo, cynomolgus monkeys (Macaca fascicularis); remark: listed apart in the source
From the text: In addition, a quantitative assessment of marmoset activity was made using computer-operated passive infra-red sensors, essentially as described previously (Maccarrone et al., 2003, J. Neurochem. 85: 1018-1025; Visanji et al., 2009 J Pharm Exp Ther 328: 276-283). A single sensor containing a hemispherical lens (Guardall, Mississauga, ON, Canada) was mounted 1.5 m above the top of each the observation cage. The sensor was positioned so that motion was detected throughout the entirety of the cage below. The signal was fed via an RS-232 input to a computer. […] Activity counts were logged in 1-min epochs for the entire 6 h duration of the experiment and cumulated over the peak dose period of 2-4 h.
Assessment of marmoset activity was further assessed over time by quantifying the average activity of counts per minute of the same animals obtained prior to administration of MPTP (i.e., in the normal state). Activity over the same period of 2-4 h was calculated and used to identify minutes of high activity (a minute when activity was above the average per minute of the animal prior to MPTP). High activity counts (the total counts obtained in high activity minutes) were cumulated. High activity time (the number of high activity minutes) were also calculated.
Six cynomolgus monkeys (Macaca fascicularis) were used in each experiment. Animals were group housed with up to 3 animals per cage. The cage sizes exceeded UK, NIH, EU and CCAC minimum size recommendations, 2.4 m×3.0 m×1.0 m. The housing room was subject to a 12 hour light-dark cycle (lights on 7 a.m.), temperature 20-25° C. in a room containing only animals of the same sex. Fresh fruit, primate pellets and water was available ad libitum unless specifically described in other examples below.
This experiment examined the behavioral responses to five doses of URB597 (0.01, 0.03, 0.1, 0.3 or 1 mg/kg, i.v.) or vehicle in combination with L-DOPA in six parkinsonian macaques previously lesioned with MPTP.
The protocols for housing and acclimatization for the six parkinsonian MPTP-lesioned macaques were as those detailed in Example 6.
After acclimatization, the macaques in the MPTP cohort were rendered parkinsonian by once daily subcutaneous injection of 0.2 mg/kg MPTP, administered for 8-12 days, until the first appearance of parkinsonism symptoms. After this time, a parkinsonian syndrome evolved to a moderate to marked level, over approximately 30 days, and stabilized. Additional administrations of MPTP were given to some animals to titrate to similar degrees of parkinsonism in individuals across the group.
Sixty days after commencing MPTP administration, L-DOPA (20 mg/kg) was administered orally twice daily for six months. L-DOPA was administered as Madopar™ (L-DOPA in combination with benserazide). This treatment led to the development of motor fluctuations, including dyskinesia and wearing-off.
Dose-finding studies were performed to define a dose of L-DOPA for each individual macaque that provided the best anti-parkinsonian effect achievable and elicited hyperactivity that was stable and reproducible for that animal, on successive L-DOPA administrations.
L-DOPA was administered p.o. at a dose volume of 1 ml/kg, as Madopar™ (L-DOPA in combination with benserazide in the ratio 4:1). The vehicle for Madopar™ was water. On days when animals were not subject to behavioral observations they received maintenance oral L-DOPA, Madopar™ (30 mg/kg, p.o.) at approximately 9:00 a.m.
URB597 was obtained from Cayman Chemical (product #10046) and was formulated in 0.9% sterile saline containing 1% DMSO (v/v) (Sigma-Aldrich product #D2650) and 2% (v/v) Tween-80 (Sigma-Aldrich product #P4780) for dosing at a volume of 1 ml/kg.
For each URB597 concentration tested, requisite amounts of URB597 were weighed into sterile 50 ml sterile polypropylene tubes (Falcon™) (e.g., for the 1 mg/kg doses, approximately 35 mg was weighed). […]

## NC(=O)c1cccc(-c2cccc(OC(=O)NC3CCCCC3)c2)c1 [URB597]
MPTP-lesioned macaques [1]; L-DOPA/URB597 (0.1 ml/kg as printed, i.v.), between 2 and 3 h after L-DOPA
  total activity counts, high activity time and high activity counts compared to normal macaques: significantly higher
MPTP-lesioned macaques [1]; URB597 0.3 mg/ml (so in the source) i.v. + L-DOPA p.o., 2-3 h post L-DOPA, p<0.05
  total activity and high activity count compared to L-DOPA alone treatment: significantly lower
MPTP-lesioned macaques [2]; 0.3 and 1.0 mg/ml (so in the source) URB597 i.v. and L-DOPA p.o.
  hyperactive behavior compared with treatment with L-DOPA alone: significant reduction
MPTP-lesioned macaques [2]; URB597 0.1 mg/kg i.v. + L-DOPA p.o.
  effect on L-DOPA-induced hyperactivity: ineffective
MPTP-lesioned macaques [2]; URB597 0.3 mg and 1.0 mg/kg i.v. + L-DOPA p.o., at 3 hrs, RM-ANOVA
  total activity versus L-DOPA treatment only: significant effect
MPTP-lesioned macaques [2]; URB597 0.3 mg/kg i.v. + L-DOPA p.o.
  effect on L-DOPA-induced hyperactivity: maximally effective
MPTP-lesioned macaques [2]; URB597 0.01-1 mg/kg i.v. + L-DOPA p.o.
  levels of L-DOPA-induced hyperactivity, dose dependence: dose-dependently reduced
MPTP-lesioned macaques [2]; URB597 0.3 and 1.0 mg/kg i.v. + L-DOPA p.o., at 3 hrs post-administration of L-DOPA
  hyperactivity over the L-DOPA treatments alone: lowered hyperactivity
